Laboratory results: US10732172B1, “Methods, systems, and compositions for determining blood clot formation, and uses thereof” (President and Fellows of Harvard College, priority 2015, dated 2020)
“Also recorded” adds a separate entry of the source.

Assays:
Format in all cases: cell-based, human
HUVECs and platelets [1] = test: Platelet adhesion and dynamics on TNF-α stimulated endothelium (living or fixed), whole blood perfusion; details: for platelet aggregation pattern / Aggregation Index (AI) / translocation and embolization of thrombi / Embolization Index (EI): HUVEC, TNF-α 0, 5, 100 ng/ml
Description: 500 microliters (“μL”) of whole blood are pipetted into a fluid reservoir fitted to one end of a microchannel. Platelets are labeled with human CD41-PE antibody (e.g., 10 μL/mL from Invitrogen) that is directly added to the blood samples and incubated at room temperature for 10 minutes. Fluorescently labeled fibrinogen (e.g., 10 μg/mL from Life Sciences) is added, if required. Blood is pulled through the device (e.g., 30 μL/min) via tubing at an outlet using a syringe pump (e.g., PHD Ultra™ CP, Harvard Apparatus), resulting in an arterial shear rate of 750 s^−1. After two minutes, blood is supplemented with 100 millimolars (“mM”) calcium (“CaCl2”) and 75 mM magnesium (“MgCl2”) to support coagulation-activated blood clotting (e.g., 100 μL/mL).
Platelets are visualized using time-lapse fluorescence imaging (e.g., 20×, NA 0.4). A time series of a 10-frame panorama (e.g., 6 mm long×0.665 mm wide region of a microchannel), at a lapse of every 30 seconds is recorded. The resulting image stack is maximum intensity projected along time, thresholded, segmented, and cropped to a central 200 microns (“μm”) of the channel width for analysis. Finally, platelet coverage is computed from the binary image as the ratio of bright pixels to the total number of pixels in the image.
Multiple endothelial adhesion molecules are involved in the recruitment of blood cells and platelets in thrombosis in vivo. In previous studies, treatment of a living endothelium cultured in microfluidic channels with TNF-α results in an increase in expression of surface adhesion molecules, such as ICAM-1 and VCAM-1 within four hours after addition. To explore whether a fixed endothelium retains expression of these and other surface molecules that could potentially exacerbate thrombosis, the endothelium is first activated in the device by adding increasing doses of TNF-α, e.g., 0, 5, and 100 nanograms/millliter (“ng/ml”), for approximately 18 hours. The endothelium cells are fixed with 4% paraformaldehyde in phosphate-buffered saline (“PBS”) for 15 minutes at room temperature, are rinsed three times with PBS, and, then, stored in PBS at 4° C. in a humid environment.
To explore whether the fixed endothelium in the microfluidic devices retains the ability to promote hemostasis, recalcified citrated whole blood (coagulation activated) is immediately perfused through a microfluidic channel lined by the fixed endothelium and preserved for 24-36 hours. Platelet adhesion is analyzed for 15 minutes of flow.
(§1) Specifically, the analysis includes a method to quantitate platelet function in flow chambers and microfluidic devices that has been primarily limited to analyzing platelet adhesion on bare collagen surfaces. To analyze platelet-endothelial dynamics that will act as a robust readout of physiologically-relevant clotting, an automated imaging program creates an image time-series, K(x, y, t), containing a 10-frame panorama in space. Images are acquired at a frame rate of 2 panoramic images per minute, for a total time of 15 minutes. A non-dimensional stochastic index is derived to quantitate platelet endothelial dynamics (“P-E”), which is the interpercentile range of a coefficient of variance of the image time-series: P-E=range(CV(K(x,y,t) (1) A feature of this analytical readout is that instead of an “ensemble averaging,” the method incorporates the cell-surface interactions at the pixel level and quantitates statistical “dispersion” of interactions.
When the device is perfused with whole blood, thrombi that are rich in platelets and fibrin form on the surface (FIG. 65C). The spatiotemporal dynamics of fluorescent platelet activity during formation of these thrombi on the endothelial surface was analyzed by time-lapse imaging. As flow was stable for at least 15 min, all experiments were carried out within the first 15 minutes. In some embodiments, blood might begin to clot in the tubing connected to the chip at later times (leading to decreased perfusion rates). […]

HUVECs and platelets [2] = test: as above; details: TNF-α 5 ng/ml before fixation; kept 1 day or 5 days; versus no TNF-α
[3] = test system: primary alveolar epithelial cells (AE) and endothelial cells with whole blood; test: Lung-on-a-chip stimulated with TNF-α or LPS: vascular ICAM-1, P-E, clots, gap junctions
Text: as §1
After plasma treatment of the microfluidic devices, the two chambers are pre-treated with 10% (3-aminopropyl)-trimethoxysilane (APTMES, e.g., from Sigma) in 100% anhydrous alcohol (e.g., from Sigma) for 10-20 minutes. The chambers are flushed sequentially with 70% ethanol in water and 100% ethanol, and then dried at 60-80° C. for two hours. Then, a mixture of rat tail collagen I (100 μg ml^−1 in PBS, from BD Biosciences) and fibronectin (e.g., 30 μg/ml in PBSm, from BD Biosciences) is introduced in both chambers of the microfluidic device. The microfluidic device is incubated at 37° C. for at least 2 hours before flushing with PBS or EGM-2 cell culture media.
Some of the microfluidic devices are used with collagen coating alone (without cells). In other devices, HUVECs (e.g. from Lonza) are cultured in Endothelial Growth Medium-2 (EGM-2, from Lonza) and used between certain passages. The cells (5-10×10^6 cells/ml) are introduced into the collagen-coated channels and incubated for 20 minutes at 37° C. to promote cell attachment before a second similar HUVEC suspension is, then, introduced. The microfluidic devices are incubated upside down for an additional 20 minutes to seed the cells on the ceiling and walls of the lower chamber.
The lower chamber is then flushed with EGM-2 and, then, a suspension of primary alveolar epithelial cells (e.g., from ScienCell Research Labs, Carlsbad, Calif.; 5-6×10^6 cells ml^−1) is introduced into the top chamber of the device. After a few hours, the top and bottom chambers are flushed with their respective media, and the microfluidic devices are incubated at 37° C. under 5% CO2 for 3 days (with media being replaced each day once). On day 4, the bottom vascular chamber is set on perfusion of EGM-2 media (e.g., 30 μL hr^−1; 0.5% fetal bovine serum) to provide shear to the HUVEC vessel chamber and a continuous supply of fresh media.
On day 6, the epithelial cell media in the top chamber is aspirated to create the air-liquid interface of the alveoli. Hereon, the cell culture continues for another 6-8 days, after which, in some cases, the top chamber is supplemented with 0, 5, or 100 ng ml^−1 TNF-α in PBS (e.g., from Sigma) overnight or LPS (e.g., 100 ng ml^−1 of E. Coli, from Sigma,) for 2 hours to cause cell activation. The LPS is sonicated in ultrasonic bath for about 20-30 minutes before introducing into the microfluidic device. After stimulation, the top chamber is clamped, the bottom chamber is rinsed with culture media, a reservoir cut from a 3 ml slip-tip syringe (e.g., from BD) is inserted on one end of the lower chamber, and a 1/16-inch male luer connector (e.g., from Qosina Corp) is inserted on the other end of the lower chamber.
When analyzing the formation of fibrin, blood samples re added with 15 μg ml^−1 of fluorescently labeled fibrinogen (e.g., Alexa 488 from Invitrogen). […]

tumor necrosis factor-α [TNF-α] was tested, and the “platelet aggregation pattern / Aggregation Index (AI)” value (HUVECs and platelets [1]) was “heterogeneous and fluctuated in a dose-dependent manner; also recorded: varied depending on the dose of TNF-α”, the “translocation and embolization of thrombi / Embolization Index (EI)” value (HUVECs and platelets [1]) was “great variation in the fluorescent signal over time and space; also recorded: increased with increasing doses” and the “platelet aggregation pattern / Aggregation Index (AI)” value (HUVECs and platelets [1]; listed as TNFα) was “rise of AI with increasing TNFα dose”. The “translocation and embolization of thrombi / Embolization Index (EI)” value (HUVECs and platelets [1]; listed as TNFα) was “increased in a TNFα dose-dependent manner”, the “area-averaged platelet adhesion rate on living HUVECs” value (HUVECs and platelets [1]; TNF-α stimulated HUVECs (TNF+; TNF++) versus unstimulated) was “increase in platelet adhesion” and the “platelet dynamics (TPD, SPD) on fixed HUVECs” value (HUVECs and platelets [1]; TNF-α treated and fixed, versus fixed collagen or untreated fixed endothelium) was “elevated”. The “platelet coverage on fixed endothelium” value (HUVECs and platelets [1]; endothelium treated with increasing doses of TNF-α prior to fixation) was “increases in a TNF-α dose-dependent manner; also recorded: dose-dependent increase in platelet surface adhesion; also recorded: dose-dependent increase in surface coverage of platelet-rich thrombi”, the “platelet-endothelial dynamics (P-E; spatial and temporal dispersion)” value (HUVECs and platelets [1]; living endothelium stimulated with TNF-α) was “increase in a TNF-α dose dependent manner; also recorded: significant fluctuations; also recorded: TNF-α dose-dependent increase in both the spatial and temporal dispersion” and the “platelet coverage / adhesion on living endothelium” value (HUVECs and platelets [1]; living endothelium stimulated with TNF-α before blood flow) was “increases in a TNF-α dose-dependent manner; also recorded: platelet adhesion again occurs; also recorded: platelet adhesion and aggregation again resulted”. The “platelet adhesion rate on fixed HUVECs” value (HUVECs and platelets [2]) was “significantly higher”, the “vascular ICAM-1 expression in lung-on-chip” value ([3]; TNF-α on alveolar compartment containing AE) was “increases in a dose-dependent manner” and the “platelet-endothelial dynamics in lung-on-chip” value ([3]; TNF-α stimulated versus untreated) was “follows a similar trend as ICAM-1”. The “clots (platelets and fibrin) in vascular compartment of lung-on-chip” value ([3]; TNF-α stimulated, end of assay) was “significant amount of clots are observed”.
